# Experimental data taken from publication PMC4839570, “Novel Anthra[1,2-c][1,2,5]Thiadiazole-6,11-Diones as Promising Anticancer Lead Compounds: Biological Evaluation, Characterization & Molecular Targets Determination” (PLoS ONE, 2016).
# Read-outs that look alike come from different tables or passages of the source.
# Key:
# [1] = system: UO-31; assay: NCI-60 cytotoxicity screen; format: cell-based
# [2] = system: NCI-H522; assay: JFCR-39 cytotoxicity screen; format: cell-based
# [3] = system: MDA-MB-231/ATCC; assay: NCI-60 cytotoxicity screen; format: cell-based
# [4] = system: NCI 60 human cancer cell lines; assay: NCI-60 screen, means, ranges and selectivity over panels; format: cell-based; settings: for GI50: Homo sapiens
# Experimental: Both NSC745885 and NSC757963 satisfied the pre-determined threshold inhibition criteria of the NCI-60 One-Dose Screening, so they were tested against the panels of 60 cancer cell lines of NCI (NCI-60) and 39 cancer cell lines of JFCR (JFCR-39), each cell line was tested at five small doses of our compounds. Results are expressed as the 50% growth inhibition concentration (GI50), the 50% lethal concentration (LC50) and the total growth inhibition (TGI), compared to the values of untreated control cells.
# To characterize the selectivity of NSC745885 and NSC757963 further among the different types of cancer, we determined their selectivity ratios towards each cell line subpanel used in the cytotoxicity experiments. […] The promising activity of this compound is evident from the small mean GI50 values. […] The strongest activity was towards the leukemia subpanel and the least one was towards the colon cancer subpanel. […] The strongest activity was towards the melanoma subpanel and the least one was towards the colon cancer subpanel.
# All cell lines were published before.
# [5] = system: SF-268; assay: JFCR-39 cytotoxicity screen; format: cell-based
# [6] = system: MDA-MB-468; assay: NCI-60 cytotoxicity screen
# [7] = system: SNB-75; assay: JFCR-39 cytotoxicity screen; format: cell-based
# [8] = system: A549/ATCC; assay: NCI-60 cytotoxicity screen; format: cell-based
# [9] = system: HCT-116; assay: NCI-60 cytotoxicity screen; format: cell-based
# [10] = system: NF-κB p65 subunit translocation in OVCAR-3 cells; assay: NF-κB inhibition by immunocytochemical fluorescent staining; format: cell-based, human; settings: 5 μM
# Experimental: Inhibition of NF-κB was detected according to Ataie-Kachoie et al.. Briefly, each group of tested cells were seeded on coverslips treated with HCl and ethanol, and autoclaved prior to use. Immunostaining of the p65 subunit of NF-κB was done by permeabilizing the cells with Triton […], then by treating the cells with anti-NF-κB p65 rabbit monoclonal primary antibody [E379] Abcam # ab32536, followed by Alexa Fluor® 488 Donkey anti-rabbit IgG secondary antibody Biolegend # 406416. Nuclei of cells were stained with 4',6-diamidino-2-phenylindole (DAPI). Images were acquired using fluorescence microscope. Tested cells were divided into five groups which are no treatment control, no primary antibody control, PDTC (50 μM) treated control, NSC745885 (5 μM) and NSC757963 (5 μM) treated controls.
# [11] = system: HT-29; assay: JFCR-39 cytotoxicity screen; format: cell-based
# [12] = system: OVCAR-4; assay: JFCR-39 cytotoxicity screen; format: cell-based
# [13] = system: SR; assay: NCI-60 cytotoxicity screen; format: cell-based
# [14] = system: MCF7; assay: NCI-60 cytotoxicity screen; format: cell-based
# [15] = system: M14; assay: NCI-60 cytotoxicity screen; format: cell-based
# [16] = system: SN12C; assay: NCI-60 cytotoxicity screen; format: cell-based
# [17] = system: NCI-H23; assay: JFCR-39 cytotoxicity screen; format: cell-based
# [18] = system: U251; assay: JFCR-39 cytotoxicity screen; format: cell-based
# [19] = system: SNB-78; assay: JFCR-39 cytotoxicity screen; format: cell-based
# [20] = system: NCI-H460; assay: NCI-60 cytotoxicity screen; format: cell-based
# [21] = system: MOLT-4; assay: NCI-60 cytotoxicity screen; format: cell-based
# [22] = Homo sapiens, Fig 7, read-out: mean log10 of the GI50 values (converted)
# [23] = Homo sapiens, five-dose, read-out: GI50
# [24] = Homo sapiens, five-dose, read-out: LC50 (the source's name)
# [25] = Homo sapiens, read-out: LC50 (the source's name)
smiles,measurement,setting,value
O=C1c2ccccc2C(=O)c2c1cc(Cl)c1nsnc21 [NSC757963],GI50,[1]; [22],6.31 µM
same,GI50,[1]; [23],14 µM
same,CC50,[1]; [24],52.4 µM
same,TGI,[1]; five-dose,27.1 µM
same,TGI,[2],3.6 µM
same,GI50,[2]; Homo sapiens,1.8 µM
same,CC50,[2]; [25],7.3 µM
same,GI50,[3]; [22],1.17 µM
same,GI50,[3]; [23],1.32 µM
same,CC50,[3]; [24],8.63 µM
same,TGI,[3]; five-dose,3.37 µM
same,selectivity ratios of the NCI subpanels other than leukemia,[4],less than 3
same,GI50,"[4]; Fig 7, read-out: MG-MID of mean log10 GI50 (converted)",4.47 µM
same,GI50,"[4]; NCI Breast Cancer, read-out: Mean GI50 of subpanel",5.11 µM
same,GI50,"[4]; NCI CNS Cancer, read-out: Mean GI50 of subpanel",7.71 µM
same,GI50,"[4]; NCI Colon Cancer, read-out: Mean GI50 of subpanel",11.4 µM
same,GI50,"[4]; NCI Leukemia, read-out: Mean GI50 of subpanel",1.4 µM
same,GI50,"[4]; NCI Melanoma, read-out: Mean GI50 of subpanel",8.44 µM
same,GI50,"[4]; NCI Non-Small Cell Lung Cancer, read-out: Mean GI50 of subpanel",20.7 µM
same,GI50,"[4]; NCI Ovarian Cancer, read-out: Mean GI50 of subpanel",6.77 µM
same,GI50,"[4]; NCI Prostate Cancer, read-out: Mean GI50 of subpanel",8.53 µM
same,GI50,"[4]; NCI Renal Cancer, read-out: Mean GI50 of subpanel",18.5 µM
same,GI50,"[4]; all NCI subpanels, read-out: mean GI50 values of the NCI 60 subpanels, range",1.4 to 20.7 µM
same,GI50,"[4]; equivalent to MID, read-out: Mean GI50 of all NCI-60 cell line panels",10.9 µM
same,GI50,"[4]; five-dose, read-out: NCI-60 GI50 values, range over cell lines",0.33 to 72.8 µM
same,Selectivity ratio,[4]; NCI Breast Cancer,2.14
same,Selectivity ratio,[4]; NCI CNS Cancer,1.41
same,Selectivity ratio,[4]; NCI Colon Cancer,0.96
same,Selectivity ratio,[4]; NCI Leukemia,7.79
same,Selectivity ratio,[4]; NCI Melanoma,1.29
same,Selectivity ratio,[4]; NCI Non-Small Cell Lung Cancer,0.53
same,Selectivity ratio,[4]; NCI Ovarian Cancer,1.61
same,Selectivity ratio,[4]; NCI Prostate Cancer,1.28
same,Selectivity ratio,[4]; NCI Renal Cancer,0.59
same,TGI,[5],4.0 µM
same,GI50,[5]; Homo sapiens,2 µM
same,CC50,[5]; [25],6.5 µM
same,GI50,"[6]; Homo sapiens, MDA-MB-468",1.38 µM
same,CC50,"[6]; Homo sapiens, MDA-MB-468, read-out: LC50",6.25 µM
same,inhibition at 10 µM,"[6]; Homo sapiens, MDA-MB-468, read-out: growth inhibition",88.3%
same,GI50,"[6]; Homo sapiens, MDA-MB-468, read-out: mean log10 of the GI50 values (converted)",0.631 µM
same,TGI,"[6]; MDA-MB-468, five-dose",2.93 µM
same,TGI,[7],3.8 µM
same,GI50,[7]; Homo sapiens,2.1 µM
same,CC50,[7]; [25],6.8 µM
same,GI50,[8]; [22],91.2 µM
same,GI50,[8]; [23],> 100 µM
same,CC50,[8]; [24],> 100 µM
same,TGI,[8]; five-dose,>100 µM
same,GI50,[9]; [22],2.45 µM
same,GI50,[9]; [23],3.45 µM
same,CC50,[9]; [24],35.3 µM
same,TGI,[9]; five-dose,11.8 µM
same,nuclear translocation of the NF-κB p65 subunit,[10],significantly capable of preventing the nuclear translocation of the NF-κB p65 subunit
same,TGI,[11],45.0 µM
same,GI50,[11]; Homo sapiens,21 µM
same,CC50,[11]; [25],98 µM
same,TGI,[12],3.0 µM
same,GI50,[12]; Homo sapiens,1.6 µM
same,CC50,[12]; [25],5.6 µM
same,GI50,[13]; [22],1.82 µM
same,GI50,[13]; [23],2.64 µM
same,CC50,[13]; [24],> 100 µM
same,TGI,[13]; five-dose,>100 µM
same,GI50,[14]; [22],1.7 µM
same,GI50,[14]; [23],1.78 µM
same,CC50,[14]; [24],10.4 µM
same,TGI,[14]; five-dose,4.24 µM
same,GI50,[15]; [22],15.1 µM
same,GI50,[15]; [23],17 µM
same,CC50,[15]; [24],59.7 µM
same,TGI,[15]; five-dose,31.9 µM
same,GI50,[16]; [22],2.29 µM
same,GI50,[16]; [23],3.27 µM
same,CC50,[16]; [24],36.1 µM
same,TGI,[16]; five-dose,13.1 µM
same,TGI,[17],4.1 µM
same,GI50,[17]; Homo sapiens,1.9 µM
same,CC50,[17]; [25],8.7 µM
same,TGI,[18],3.9 µM
same,GI50,"[18]; Homo sapiens, U-251",1.9 µM
same,CC50,"[18]; Homo sapiens, U-251, read-out: LC50 (the source's name)",8.1 µM
same,TGI,[19],4.1 µM
same,GI50,[19]; Homo sapiens,2.2 µM
same,CC50,[19]; [25],7.9 µM
same,GI50,"[20]; Homo sapiens, NCI-460, five-dose, read-out: GI50",30.2 µM
same,CC50,"[20]; Homo sapiens, NCI-460, five-dose, read-out: LC50 (the source's name)",> 100 µM
same,GI50,"[20]; Homo sapiens, NCI-H460, Fig 7, read-out: mean log10 of the GI50 values (converted)",33.1 µM
same,TGI,"[20]; NCI-460, five-dose",>100 µM
same,GI50,[21]; [22],0.437 µM
same,GI50,[21]; [23],0.46 µM
same,CC50,[21]; [24],> 100 µM
same,TGI,[21]; five-dose,26.7 µM
